Measured values published in patent US8283481B2, “Inhibitors of a 9-cis epoxycarotenoid dioxygenase” (National Research Council of Canada, priority 2008, dated 2012).
“Also recorded” adds a separate entry of the source. One block for each molecule: values may come before it.

Key:
[1] = tested on: ABA and catabolites in Arabidopsis thaliana Col-0 plants; test: Total ABA metabolite levels in mannitol stressed plants treated with SLCCD inhibitors; assay type: in vivo; settings: 33 μM inhibitor, mannitol stress, first 6 hours
Procedure: For each condition to be tested, three hundred wild-type Arabidopsis thaliana Col-0 seeds (LEHLE) were sterilized, vernalized and sewn onto 200 mL of Sunshine Mix #3 (Sun Gro) potting material in an 8×8×4 cm pot. Plants were watered continuously with 25 g/100 mL of 20-20-20 (PlantProd™) fertilizer and grown at 22° C. with a 16 hour photoperiod for 22 days. Plants were pre-treated with 50 mL/pot of Buffer A (10 mM HEPES pH 6.5) (Sigma)+/−10 or 33 μM test compound for 2 hours. Plants were then soaked with 50 mL/pot of Buffer A containing 0.4 M mannitol (Sigma)+/−10 or 33 μM test compound. Non-treated/non-stressed control plants were simply soaked in Buffer A at the designated time points. […] Half of the tissue samples were lyophilized for metabolite profiling and the other half taken for quantitative reverse-transcription polymerase chain reaction (qRT-PCR) analysis.
Freeze-dried tissue was homogenized using a multi-tube ball mill (Mini-BeadBeater-96™, Biospec Products Inc., Bartlesville, Okla., USA) and 50 mg of each sample was weighed out into individual Falcon tubes. To each sample, 100 μL of a cocktail of internal standards comprised of (−)-5,8′,8′,8′-d4-ABA, (−)-7′,7′,7′-d3-PA, (−)-5,8′,8′,8′-d4-7′OH ABA, (−)-7′,7′,7′-d3-DPA and (+)-4,5,8′,8′,8′-d5-ABAGE, each at a concentration of 0.2 ng/μL and dissolved in a mixture of water:acetonitrile (1:1, v/v) with 0.5% glacial acetic acid, was added. Further, 3 mL of isopropanol:water:glacial acetic acid (80:19:1, v/v/v) extraction solvent was added, and samples were placed in the fridge (4° C., in the dark) on an orbital shaker at about 350 rpm. After 18-24 hours, the samples were centrifuged at 4.4 krpm for 10 min, the supernatant was transferred to a disposable culture tube, and a second portion of 500 μL extraction solvent mixture was added to wash the pellet. After vortexing and centrifuging again at 4.4 krpm for 10 min, each wash was combined with its appropriate supernatant. The organic extract was dried under reduced pressure, then re-dissolved in 100 μL methanol:glacial acetic acid (99:1, v/v) followed by 900 μL of aqueous 1% glacial acetic acid. This mixture was extracted with 2 mL hexane, and then the aqueous layer was dried down under reduced pressure. The sample was further reconstituted in 2 mL aqueous 1% glacial acetic acid and loaded onto an Oasis MCX SPE cartridge (3 cc, Waters Corporation, Mississauga, Ontario, Canada). After a wash with 3 mL aqueous 1% glacial acetic acid, samples were eluted with 1 mL methanol:glacial acetic acid (99:1, v/v) and then dried down under reduced pressure. The extract was re-dissolved in 100 μL methanol:glacial acetic acid (99:1, v/v) followed by 900 μL of aqueous 1% glacial acetic acid. This mixture was further cleaned on an Oasis HLB SPE cartridge (1 cc, Waters Corporation, Mississauga, Ontario, Canada). After a wash with 1 mL aqueous 1% glacial acetic acid, the fraction containing ABA and ABA metabolites was eluted with 1 mL acetonitrile:water:glacial acetic acid (30:69:1, v/v/v) and then was evaporated to dryness. The final residue was dissolved in 200 μL of acetonitrile:water (15:85, v/v) containing 0.1% glacial acetic acid and 100 pg/μL (±)-3′,5′,5′,7′,7′,7′-d6-ABA as a recovery standard. Finally, the sample was subjected to LC-ES-MS/MS analysis and quantification, as described in Owen and Abrams, 2008.^39

[2] = tested on: ABA metabolite accumulation; settings: background, references 17, 18; cited from earlier work
cowpea NCED enzyme = settings: background, references 17, 18; read-out: Ki, competitive inhibition of cowpea NCED enzyme; cited from earlier work
recombinant AtNCED3 = molecular target: T1, recombinant AtNCED3 (Arabidopsis thaliana, UniProt Q9LRR7); test: Recombinant AtNCED3 in vitro enzyme assay (HPLC, cleavage of 9-cis-neoxanthin); assay type: biochemical; settings: for Ki: Dixon plot, competitive inhibition, 0-250 μM inhibitor, 9-cis-neoxanthin at 50 (55), 30 and 10 μM; for relative inhibition of AtNCED3 activity (in words): in vitro enzyme assay, 1 mM concentration (FIG. 5)
T1 construct: glutathione-S-transferase (GST) (C); made in house; host or cells: E. coli BL21(DE3), pRL296 vector
Description: Fresh spinach was macerated under liquid nitrogen and extracted five times with three volumes of methanol/0.1% KOH. Samples were dried using a roto-evaporator, resuspended in acetone and then chilled on ice for one hour. The solvent was subsequently transferred to a new flask, roto-evaporated and resuspended in acetonitrile/acetone (1:1) mixture. The mixture was applied to a gravity flow column containing C-18 silica gel (Sigma) equilibrated in 65% acetonitrile/35% water (solvent C). The column was washed with 49% acetone (solvent D)/51% solvent A and 20 mL of 55% solvent D/45% solvent A while collecting 5 mL fractions. Fractions containing neoxanthin were pooled, dried, and resuspended in 100 μL of methanol. The pooled mixture was separated using an Agilent 1100 series HPLC and a Supelcosil™ LC-18 (25 cm×10 mm, 5 m) (Supelco) column equilibrated with solvent A. The HPLC method consisted of a linear gradient over 30 minutes from 100% solvent A to 100% solvent D with a flow rate of 4 mL/minute at 22° C. and monitored with a PDA detector at 436 nm. The neoxanthin fractions were collected, dried and resuspended in ethanol. Neoxanthin was quantified by determining its OD439 using a PerkinElmer Lambda 35 UV/VIS Spectrometer and applying its extinction coefficient of 2243 (A^1%1cm).^30
AtNCED3 was over-expressed using the pRL296 expression vector (a gift from M. Cygler, BRI, Montreal) in E. coli (BL21)DE3 cells as a glutathione-S-transferase fusion protein and affinity purified using glutathione sepharose 4 fast flow resin (GE Healthcare) as described previously.^35 Essentially, cells were grown to an OD600 of 0.45 at 37° C. and 200 rpm shaking. The culture was induced with 1 mM isopropyl-β-d-thiogalactoside for 16 h at 15° C. and 200 rpm shaking. The cells were pelleted and resuspended in 50 mM Tris-HCl (pH 8.0) 1 mM DTT and 0.5% protease inhibitor cocktail set III (CalBiochem). Cells were lysed using a french press at 20,000 psi and affinity purified as per manufacturer's instructions (GE Healthcare). Protein concentration was determined by the method of Bradford.^36
Enzymatic assays contained 100 mM Bis-Tris (pH 6.7), […], 10 mM ascorbate, 0.05% Triton™ X-100, catalase (1 mg/mL), neoxanthin and inhibitor to a total volume of 5 L of ethanol and 8 g AtNCED3 to a total assay volume of 100 L. Assays were incubated at 22° C. for 20 min. The assays were stopped with the addition of 50 L of 25% Triton™ X-100 and extracted with 150 L of ethyl acetate. All procedures were performed under red-light to minimize photo-induced damage to assay components and products.^6 Fine chemicals and solvents were purchased from Sigma-Aldrich. 75 μL of the assay extract was injected into an Agilent 1100 series HPLC machine equipped with a Supelcosil™ LC-18 (3.3 cm×4.6 mm, 3 m) (Supelco) column pre-equilibrated with 15% acetonitrile (solvent B)/85% water (solvent A). Solvent B increased to 35% over ten minutes, followed by a linear gradient of 65% solvent B to 100% solvent D over 10 minutes. Solvent D was maintained at 100% for 2 minutes and then the column was returned to 15% solvent B for 5 min. The flow rate was maintained at 1.5 mL/min. and monitored with a photodiode array (PDA) detector at 436 and 262 nm.
Evaluation of recombinant AtNCED3 kinetic parameters for Km was accomplished using Michaelis-Menten equation plotted with EnzFitter™ v2.0.18.0 (Biosoft). The Ki for inhibitors was determined using a Dixon plot and concentration ranges of 250, 200, 150, 100, 50 and 0 μM inhibitor in the presence of either 55, 30 or 10 μM 9-cis-neoxanthin 2.^5

[3] = tested on: Arabidopsis thaliana Col-0 seeds; test: Seed germination assay; assay type: in vivo
Procedure: Arabidopsis thaliana Col-0 seeds were sterilized by washing them with 10% sodium hypochlorite and 20% sodium dodecyl sulfate (Sigma) for five minutes and then rinsing four times with sterile water. Seeds were moist chilled for 4 days and then plated on germination medium (0.41% MS salts, 1% sucrose, 0.05% MES and 0.1% Gamborg's vitamins, pH 5.7, 0.7% agar) (Sigma) containing either 0.1, 0.33, 1.0 or 3.33 μM of inhibitor or (+)-ABA 1. As a control, seeds were sewn and germinated on media only without inhibitors or (+)-ABA 1. Germination was recorded over seven days and indexes calculated as described previously.^40

T1 sequence (Q9LRR7 41-599): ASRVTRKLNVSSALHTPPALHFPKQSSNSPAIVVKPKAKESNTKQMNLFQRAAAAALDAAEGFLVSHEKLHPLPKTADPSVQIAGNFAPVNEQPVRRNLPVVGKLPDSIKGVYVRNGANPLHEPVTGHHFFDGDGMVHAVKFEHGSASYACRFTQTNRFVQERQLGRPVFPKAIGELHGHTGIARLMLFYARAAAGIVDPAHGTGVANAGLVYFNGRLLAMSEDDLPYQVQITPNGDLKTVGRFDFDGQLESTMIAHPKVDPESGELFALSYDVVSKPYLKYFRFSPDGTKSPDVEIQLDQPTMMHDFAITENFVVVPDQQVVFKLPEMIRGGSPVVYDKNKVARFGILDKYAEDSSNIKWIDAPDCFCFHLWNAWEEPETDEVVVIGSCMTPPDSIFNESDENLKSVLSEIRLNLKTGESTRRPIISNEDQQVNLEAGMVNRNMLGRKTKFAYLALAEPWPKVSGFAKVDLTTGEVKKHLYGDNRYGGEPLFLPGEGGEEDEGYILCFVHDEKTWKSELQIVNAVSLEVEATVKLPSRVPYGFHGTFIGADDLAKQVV

Molecule: CCSC/C=C(/C)C#C[C@@]1(O)[C@@H](C)CC(=O)CC1(C)C [Compound 12, (4R,5S)-(3′Z)-4-(5′-(Ethylthio)-3′-methylpent-3′-en-1′-ynyl)-4-hydroxy-3,3,5-trimethylcyclohexanone]
relative inhibition of AtNCED3 activity (in words) (recombinant AtNCED3): completely inhibited; also recorded: inhibited the enzyme as strongly as the more xanthoxin-like compounds

Molecule: CCSC/C=C(/C)C#C[C@]1(O)[C@H](C)CC(=O)CC1(C)C [Compound 11, (4S,5R)-(3′Z)-4-(5′-(Ethylthio)-3′-methylpent-3′-en-1′-ynyl)-4-hydroxy-3,3,5-trimethylcyclohexanone]
relative inhibition of AtNCED3 activity (in words) (recombinant AtNCED3): reduced activity

Molecule: CCSC/C=C(/C)C#C[C@]1(O)[C@H](C)C[C@@H](O)CC1(C)C [Compound 14, (1S,4R,6R)-(3′Z)-1-(5′-(Ethylthio)-3′-methylpent-3′-en-1′-ynyl)-2,2,6-trimethylcyclohexane-1,4-diol]
relative inhibition of AtNCED3 activity (in words) (recombinant AtNCED3): did not afford greater activity

Molecule: CC1=CC(=O)CC(C)(C)C1(O)/C=C/C(C)=C\C(=O)O (single isomer, unassigned; (+)) [(+)-ABA 1, Abscisic acid, reference compound]
reduction of seed germination ([3]; 0.33 μM in germination medium): 47%
reduction of seed germination ([3]; 1 μM in germination medium): 61%
reduction of seed germination ([3]; highest concentration tested (3.33 μM)): 96%

More lines, main results first:

Ki (recombinant AtNCED3): 132 µM
Molecule: COC(=O)CN(C/C=C/c1ccc(OC)c(OC)c1)Cc1ccc(F)cc1 [compound 9, Abamine, reference compound]
levels of ABA and catabolites at first time point (in words) [1]: higher levels of ABA and catabolites at the first time point
reduction of ABA metabolite accumulation [2]: 35%
Ki (cowpea NCED enzyme): 18.5 µM

Km (recombinant AtNCED3; cleavage of 9-cis-neoxanthin 2 by recombinant AtNCED3, Michaelis-Menten plot): 24 µM
Molecule: CC(=C/C=C/C(C)=C/C=C/C=C(C)/C=C/C=C(\C)C=C=C1C(C)(C)C[C@H](O)C[C@@]1(C)O)/C=C/[C@@]12O[C@]1(C)C[C@@H](O)CC2(C)C (relative stereo) [compound 2, 9-cis-Neoxanthin, reference compound]

relative inhibition of AtNCED3 activity (in words) (recombinant AtNCED3): did not afford greater activity
Molecule: CCSC/C=C(/C)C#C[C@@]1(O)[C@H](C)C[C@@H](O)CC1(C)C [Compound 15, (1R,4R,6R)-(3′Z)-1-(5′-(Ethylthio)-3′-methylpent-3′-en-1′-ynyl)-2,2,6-trimethylcyclohexane-1,4-diol]

Ki (recombinant AtNCED3): 86 µM
Molecule: Abamine SG [compound 10]
reduction of ABA metabolite accumulation [2]: 77%
Ki (cowpea NCED enzyme): 38.8 µM
